Assay results from patent US10080757B2 (WISCONSIN ALUMNI RESEARCH FOUNDATION, priority 2016, dated 2018).

What follows are compounds tested against T1, recombinant MtbUGM (Mycobacterium tuberculosis, UniProt P9WIQ1) (assay: biochemical). Conditions: carboxylic acid replacements (R3).
T1 construct: made in house
T1 sequence (P9WIQ1 whole entry): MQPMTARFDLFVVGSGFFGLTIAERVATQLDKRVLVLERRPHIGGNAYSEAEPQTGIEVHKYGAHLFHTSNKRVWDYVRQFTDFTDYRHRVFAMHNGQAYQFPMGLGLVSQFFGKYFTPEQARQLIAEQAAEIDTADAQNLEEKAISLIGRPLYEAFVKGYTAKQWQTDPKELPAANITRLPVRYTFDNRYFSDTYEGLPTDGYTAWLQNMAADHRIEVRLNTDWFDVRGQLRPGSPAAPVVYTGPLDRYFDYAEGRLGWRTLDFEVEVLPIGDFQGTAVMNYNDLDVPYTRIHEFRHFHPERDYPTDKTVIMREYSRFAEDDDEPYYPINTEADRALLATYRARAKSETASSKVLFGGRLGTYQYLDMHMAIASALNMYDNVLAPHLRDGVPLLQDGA

| Structure (SMILES) | MtbUGM inhibition (in words) |
| --- | --- |
| COC(=O)CC1Sc2nnc(Cc3ccc(Br)cc3)n2N=C1c1ccc(Cl)cc1 (stereo not shown) [Compound 14, Methyl-2-(3-(4-bromobenzyl)-6-(4-chlorophenyl)-7H-[1,2,4]triazolo[3,4-b][1,3,4]thiadiazin-7-yl)acetate] | neither the ester nor amide variants effectively inhibit MtbUGM |
| COC(=O)CC1Sc2nnc(-c3cccs3)n2N=C1c1ccc(Cl)cc1 (stereo not shown) [Compound 32, Methyl-2-(6-(4-chlorophenyl)-3-(thiophen-2-yl)-7H-[1,2,4]triazolo[3,4-b][1,3,4]thiadiazin-7-yl)acetate] | neither the ester nor amide variants effectively inhibit MtbUGM |
| C=CCNC(=O)CC1Sc2nnc(-c3cccs3)n2N=C1c1ccc(Cl)cc1 (stereo not shown) [Compound 34, N-allyl-2-(6-(4-chlorophenyl)-3-(thiophen-2-yl)-7H-[1,2,4]triazolo[3,4-b][1,3,4]thiadiazin-7-yl)acetamide] | neither the ester nor amide variants effectively inhibit MtbUGM |
| C=CCNC(=O)CC1Sc2nnc(Cc3ccc(Br)cc3)n2N=C1c1ccc(Cl)cc1 (stereo not shown) [Compound 35, N-allyl-2-(3-(4-bromobenzyl)-6-(4-chlorophenyl)-7H-[1,2,4]triazolo[3,4-b][1,3,4]thiadiazin-7-yl)acetamide] | neither the ester nor amide variants effectively inhibit MtbUGM |
